Data as given in US10040804B2, “Compounds targeting proteins, compositions, methods, and uses thereof” (BioTheryX, Inc., priority 2016, dated 2018).

Experiments:
IL-1β = IL-1β expression in LPS stimulated PBMCs (Meso Scale); type: cell-based, human; conditions: for inhibition at 0.1 µM / inhibition at 10 µM / inhibition at 1 µM: Homo sapiens, PBMC; for inhibition at 0.1 µM: compound concentration 0.1 μM; for inhibition at 10 µM: compound concentration 10 μM; for inhibition at 1 µM: compound concentration 1 μM
Protocol: FIGS. 5 and 9A are graphs showing IL-1-beta expression in LPS stimulated peripheral blood mononuclear cells (PBMCs), PBMCs were plated in 96-well plates and pretreated with compound (Compound 1-9 individually) for 1 h, and then induced with 100 ng/mL LPS for 18-24 h. Cytokines in the media were measured according to MesoScale protocol. Negative control wells were treated with DMSO. Compound activity is measured as a percentage of LPS-induced activity. “Rev” is lenalidomide.
(§1) Frozen primary blood mononuclear cells (PBMCs) and frozen CD14+ mobilized peripheral blood monocytes were purchased from AllCells. Cells were quick thawed, and washed 1-time with RPMI-1640/10% FBS/1% Penicillin/1% Streptomycin and plated in 96-well plates at 200,000 cells per well. Cells were pretreated with DMSO only, Compound 5013 (lenolidamide) or the indicated compound for 1 h and then induced with 100 ng/mL lipopolysaccharide (LPS) for 18-24 h. The supernatant was analyzed for IL-1 beta, IL-6, and TNF-α using Meso Scale assay according to manufacturer's protocol. The negative control wells were treated with DMSO.
(§2) PBMCs: AllCells PB003F, Normal Peripheral Blood MNC.
(§3) Media: RPMI 1640/10% FBS/1% Pen-Strep.

IL-6 = IL-6 expression in LPS stimulated PBMCs (Meso Scale); type: cell-based, human; conditions: for inhibition at 0.1 µM / inhibition at 10 µM / inhibition at 1 µM: Homo sapiens, PBMC, LPS-stimulated PBMCs; for inhibition at 0.1 µM: compound concentration 0.1 μM; for inhibition at 10 µM: compound concentration 10 μM; for inhibition at 1 µM: compound concentration 1 μM
Protocol: FIGS. 6 and 9B are graphs showing IL-6 expression in LPS stimulated peripheral blood mononuclear cells (PBMCs). PBMCs were plated in 96-well plates and pretreated with compound (Compound 1-9 individually) for 1 h, and then induced with 100 ng/mL LPS for 18-24 h. Cytokines were measured according to MesoScale protocol. Negative control wells were treated with DMSO. Compound activity was measured as a percentage of LPS-induced activity. “Rev” is lenalidomide.
as §1, §2, §3

TNF-α = TNF-α expression in LPS stimulated PBMCs (Meso Scale); type: cell-based, human; conditions: for inhibition at 0.1 µM / inhibition at 10 µM / inhibition at 1 µM: Homo sapiens, PBMC; for inhibition at 0.1 µM: compound concentration 0.1 μM; for inhibition at 10 µM: compound concentration 10 μM; for inhibition at 1 µM: compound concentration 1 μM
Protocol: FIGS. 7 and 9C are graphs showing TNF-a expression in LPS stimulated peripheral blood mononuclear cells (PBMCs). PBMCs were plated in 96-well plates and pretreated with compound (Compound 1-9 individually) for 1 h, and then induced with 100 ng/mL LPS for 18-24 h. Cytokines in the media were measured according to MesoScale protocol. The negative control wells were treated with DMSO. Compound activity is measured as a percentage of LPS-induced activity. “Rev” is lenalidomide.
as §1, §2, §3

GSPT1 = target: T1, GSPT1 (Homo sapiens, UniProt P15170); experiment: GSPT1 protein levels by Western Blot analysis; type: cell-based; conditions: DMSO = 100.00; for remaining activity at 0.1 µM: 100 nM compound concentration; for remaining activity at 1 µM: 1 μM compound concentration
T1 construct: Whole cell extracts were prepared using RIPA buffer according to manufacturer's protocol (Pierce); endogenous in cells
T1 sequence (P15170 whole entry): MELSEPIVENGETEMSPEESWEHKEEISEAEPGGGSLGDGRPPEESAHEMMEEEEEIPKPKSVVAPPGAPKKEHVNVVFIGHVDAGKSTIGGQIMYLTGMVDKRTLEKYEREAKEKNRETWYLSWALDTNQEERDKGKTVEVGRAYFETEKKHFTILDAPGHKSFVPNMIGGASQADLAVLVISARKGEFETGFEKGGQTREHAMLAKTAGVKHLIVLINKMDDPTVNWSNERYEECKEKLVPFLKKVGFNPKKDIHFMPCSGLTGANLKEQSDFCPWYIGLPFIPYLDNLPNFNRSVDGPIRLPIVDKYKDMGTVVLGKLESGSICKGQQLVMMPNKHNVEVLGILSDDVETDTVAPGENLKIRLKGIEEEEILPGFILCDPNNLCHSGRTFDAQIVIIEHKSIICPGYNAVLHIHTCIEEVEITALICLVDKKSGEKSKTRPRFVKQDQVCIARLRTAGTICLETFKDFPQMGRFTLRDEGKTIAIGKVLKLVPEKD
T1 sequence (Q96SW2 whole entry, further chain): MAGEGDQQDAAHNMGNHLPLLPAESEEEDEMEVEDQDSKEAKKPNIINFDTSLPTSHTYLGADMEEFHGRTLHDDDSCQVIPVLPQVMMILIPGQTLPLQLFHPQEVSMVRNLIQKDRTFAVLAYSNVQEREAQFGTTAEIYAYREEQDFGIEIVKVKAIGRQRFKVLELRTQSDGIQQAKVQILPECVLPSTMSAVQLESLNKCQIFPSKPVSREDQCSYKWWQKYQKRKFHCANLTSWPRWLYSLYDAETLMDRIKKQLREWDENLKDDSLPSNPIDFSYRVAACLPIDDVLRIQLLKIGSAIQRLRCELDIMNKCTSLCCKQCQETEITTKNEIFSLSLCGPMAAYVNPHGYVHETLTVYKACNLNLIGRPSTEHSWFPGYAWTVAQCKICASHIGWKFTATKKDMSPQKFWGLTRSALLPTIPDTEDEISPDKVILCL
T1 sequence (Q16531 whole entry partner): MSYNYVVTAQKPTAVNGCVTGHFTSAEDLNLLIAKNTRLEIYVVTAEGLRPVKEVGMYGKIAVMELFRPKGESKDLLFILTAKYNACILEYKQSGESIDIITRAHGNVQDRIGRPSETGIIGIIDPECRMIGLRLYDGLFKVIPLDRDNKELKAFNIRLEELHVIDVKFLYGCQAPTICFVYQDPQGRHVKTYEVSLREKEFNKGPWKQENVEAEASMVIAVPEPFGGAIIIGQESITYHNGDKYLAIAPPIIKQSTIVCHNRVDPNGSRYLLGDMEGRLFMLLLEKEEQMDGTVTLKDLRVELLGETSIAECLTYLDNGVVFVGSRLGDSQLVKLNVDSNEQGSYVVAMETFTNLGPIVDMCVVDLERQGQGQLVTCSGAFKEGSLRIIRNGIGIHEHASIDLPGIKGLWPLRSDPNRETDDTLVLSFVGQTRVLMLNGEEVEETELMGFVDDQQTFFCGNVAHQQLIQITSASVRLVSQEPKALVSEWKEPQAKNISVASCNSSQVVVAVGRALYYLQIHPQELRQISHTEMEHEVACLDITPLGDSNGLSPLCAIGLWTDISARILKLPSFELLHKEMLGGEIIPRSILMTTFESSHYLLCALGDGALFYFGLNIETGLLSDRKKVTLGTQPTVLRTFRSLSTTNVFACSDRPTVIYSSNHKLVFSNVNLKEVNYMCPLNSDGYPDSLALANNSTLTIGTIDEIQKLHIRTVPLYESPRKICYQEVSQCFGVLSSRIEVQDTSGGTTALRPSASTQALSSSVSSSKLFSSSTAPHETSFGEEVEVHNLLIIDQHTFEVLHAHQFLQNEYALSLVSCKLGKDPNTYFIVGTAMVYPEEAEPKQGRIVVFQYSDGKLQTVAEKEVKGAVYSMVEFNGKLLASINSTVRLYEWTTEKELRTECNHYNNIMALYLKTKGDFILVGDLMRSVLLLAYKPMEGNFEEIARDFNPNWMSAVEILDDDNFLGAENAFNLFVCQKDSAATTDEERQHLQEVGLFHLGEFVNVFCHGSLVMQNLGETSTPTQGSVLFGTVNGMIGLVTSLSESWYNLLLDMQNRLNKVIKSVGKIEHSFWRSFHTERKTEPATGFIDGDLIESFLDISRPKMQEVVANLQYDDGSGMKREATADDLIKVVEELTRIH
Protocol: Cells were lysed using RIPA Buffer (Pierce) and a Western Blot analysis was performed using anti-GSPT1 and anti-β-actin antibodies. FIG. 11B is a graph showing the expression levels of GSPT1 protein in Molm-13 (AML) cells. Protein expression levels were measured using the LiCor Odyssey instrumentation and methods.
Western Blot Protocol: Cell lines were grown in RPMI 1640 supplemented with streptomycin, penicillin and 10% fetal bovine serum.
Cells were cultured at approximately 10^6 cells per mL and incubated in DMSO or each of the indicated compounds for 6-8 h. Whole cell extracts were prepared using RIPA buffer according to manufacturer's protocol (Pierce). Briefly, 2×10^6 cells were washed once in PBS, the cell pellets were resuspended in RIPA buffer and allowed to incubate for 15 minutes on ice. Cells debris was removed by centrifugation and the cleared whole cell lysates were transferred to new tubes for further analysis.
For Western blot analysis, whole cell protein extracts were separated on 4-12% SDS-polyacrylamide gels, transferred to nitrocellulose, and probed with the indicated primary antibodies. Membranes were subsequently washed and probed with the appropriate IRDye secondary antibodies (LI-COR). The signal was detected using the Odyssey Imaging System (LI-COR).
GSPT1: Rabbit anti-GSPT1 was obtained from Abcam, ab126090 (Cambridge, Eng.)

H1048 cells = experiment: H1048 cell viability (CellTiter-Glo); type: cell-based; conditions: Homo sapiens; for viability at 1 µM / viability at 10 µM: NCI-H1048, 72 h, H1048, 3 days, DMSO = 100.00; for viability at 1 µM: 1 μM compound concentration; for viability at 10 µM: 10 μM compound concentration
Protocol: (§4) FIG. 10A is a graph showing antiproliferative activity in H1048 (SCLC) cells. FIG. 10B is a graph showing antiproliferative activity in Molm-13 (AML) cells. In FIGS. 10A and 10B, the cells were incubated for 72 hrs with Compound 9 at the indicated concentrations or DMSO. Compound activity was measured based on the signal from remaining viable cells.
(§5) Molm-13 cells were cultivated in RPMI-1640 (10% FBS/1% pen-strep) and were plated in white walled 96-well plates at 20,000 cells/well. H1048 cells were cultured in DMEM:F12 media supplemented with 5% fetal bovine serum, insulin, transferrin, sodium selenite, hydrocortisone, β-estradiol, penicillin and streptomycin, and were plated in white walled 96-well plates at 20,000 cells/well. MDA-MB-231 cells were cultured in DMEM media supplemented with 10% fetal bovine serum, penicillin and streptomycin, and were plated in white walled 96-well plates at 10,000 cells/well. Cells were treated with compound or DMSO (0.1%, control) and the cultures were incubated for 3 days at 37° C. and 5% CO2. Following the incubation period, 100 μL of CellTiterGlow (CTG) reagent (CellTiter-Glo® Luminescent Cell Viability Assay, Promega (Madison, Wis.)) was added to each well. Following a 10 min incubation with shaking, luminescence was measured using a Victor Wallac Luminometer.

Molm-13 cells = experiment: Molm-13 cell viability (CellTiter-Glo); type: cell-based; conditions: Homo sapiens; for cytotoxicity at 10 µM: compound concentration 10 μM; for cytotoxicity at 1 µM: compound concentration 1 μM; for cytotoxicity at 0.1 µM: compound concentration 0.1 μM
Protocol: as §4, §5

MDA-MB-231 cells = experiment: MDA-MB-231 cell viability (CellTiter-Glo); type: cell-based; conditions: Homo sapiens, 72 h, 3 days, DMSO = 100.00; for viability at 1 µM: 1 μM compound concentration; for viability at 10 µM: 10 μM compound concentration
Protocol: as §5

[1] = MOLM-13, read-out: % Inhibition (MOLM-13 Cell Viability)

Cc1ccc(NC(=O)NCc2scc3c2CN(C2CCC(=O)NC2=O)C3=O)cc1Cl (centres unmarked) [Compound 9, 1-(3-chloro-4-methylphenyl)-3-((5-(2,6-dioxopiperidin-3-yl)-4-oxo-5,6-dihydro-4H-thieno[3,4-c]pyrrol-1-yl)methyl)urea]
inhibition at 0.1 µM (IL-1β): 98%
inhibition at 0.1 µM (IL-6): 100%
inhibition at 0.1 µM (TNF-α): 98%
remaining activity at 0.1 µM (GSPT1): 6.77%
remaining activity at 1 µM (GSPT1): 5.31%
viability at 1 µM (H1048 cells): 7.5%
viability at 10 µM (H1048 cells): 7.93%
IC50 (H1048 cells; NCI-H1048, H1048 cells, 72 hrs (FIG. 10A)): 0.5 nM
cytotoxicity at 0.003 µM (Molm-13 cells; MOLM-13, compound concentration 0.003 μM, read-out: % Inhibition (MOLM-13 Cell Viability)): 50%
IC50 (Molm-13 cells; Molm-13 cells, 72 hrs (FIG. 10B), read-out: approximate IC50 cell viability): ~3 nM
viability at 1 µM (MDA-MB-231 cells): 19.6%
viability at 10 µM (MDA-MB-231 cells): 19.1%

O=C1CCC(N2Cc3c(csc3C(F)(F)F)C2=O)C(=O)N1 (centres unmarked) [Compound 29, 3-(4-Oxo-1-(trifluoromethyl)-4H-thieno[3,4-c]pyrrol-5(6H)-yl)piperidine-2,6-dione]
inhibition at 10 µM (IL-1β): 57%
inhibition at 10 µM (IL-6): 19%
inhibition at 10 µM (TNF-α): 60%
cytotoxicity at 10 µM (Molm-13 cells; [1]): 10%

Cc1ccc(NC(=O)NCc2csc3c2CN([C@H]2CCCC(=O)NC2=O)C3=O)cc1Cl [Compound 45, (S)-1-(3-Chloro-4-methylphenyl)-3-((5-(2,7-dioxoazepan-3-yl)-6-oxo-5,6-dihydro-4H-thieno[2,3-c]pyrrol-3-yl)methyl)urea]
inhibition at 1 µM (IL-1β): 19%
inhibition at 1 µM (IL-6): 18%
inhibition at 1 µM (TNF-α): 22%
remaining activity at 0.1 µM (GSPT1): 90.3%
remaining activity at 1 µM (GSPT1): 22.3%
viability at 1 µM (H1048 cells): 12.7%
viability at 10 µM (H1048 cells): 9.89%
cytotoxicity at 1 µM (Molm-13 cells; [1]): 59%
viability at 1 µM (MDA-MB-231 cells): 101%
viability at 10 µM (MDA-MB-231 cells): 46.7%

Cc1ccc(NC(=O)NCc2scc3c2CN(C2CCC(=O)NC2=O)C3=O)nc1Cl (centres unmarked) [Compound 46, 1-(6-Chloro-5-methylpyridin-2-yl)-3-((5-(2,6-dioxopiperidin-3-yl)-4-oxo-5,6-dihydro-4H-thieno[3,4-c]pyrrol-1-yl)methyl)urea]
inhibition at 0.1 µM (IL-1β): 54%
inhibition at 0.1 µM (IL-6): 85%
inhibition at 0.1 µM (TNF-α): 58%
remaining activity at 0.1 µM (GSPT1): 65.2%
remaining activity at 1 µM (GSPT1): 4.73%
viability at 1 µM (H1048 cells): 9.35%
viability at 10 µM (H1048 cells): 11.5%
cytotoxicity at 0.1 µM (Molm-13 cells; [1]): 100%
viability at 1 µM (MDA-MB-231 cells): 29%
viability at 10 µM (MDA-MB-231 cells): 24.1%

Cc1ccc(NC(=O)Nc2scc3c2CN(C2CCC(=O)NC2=O)C3=O)cc1Cl (centres unmarked) [Compound 50, 1-(3-Chloro-4-methylphenyl)-3-(5-(2,6-dioxopiperidin-3-yl)-4-oxo-5,6-dihydro-4H-thieno[3,4-c]pyrrol-1-yl)urea]
inhibition at 1 µM (IL-1β): 14%
inhibition at 1 µM (IL-6): 0%
inhibition at 1 µM (TNF-α): 1%
viability at 1 µM (H1048 cells): 15.8%
viability at 10 µM (H1048 cells): 13.4%
cytotoxicity at 1 µM (Molm-13 cells; [1]): 41%
viability at 1 µM (MDA-MB-231 cells): 108%
viability at 10 µM (MDA-MB-231 cells): 95.7%

Cc1ccc(CNC(=O)NCc2csc3c2CN([C@H]2CCCC(=O)NC2=O)C3=O)cc1Cl [Compound 51, (S)-1-(3-Chloro-4-methylbenzyl)-3-((5-(2,7-dioxoazepan-3-yl)-6-oxo-5,6-dihydro-4H-thieno[2,3-c]pyrrol-3-yl)methyl)urea]
inhibition at 1 µM (IL-1β): 38%
inhibition at 1 µM (IL-6): 5%
inhibition at 1 µM (TNF-α): 49%
viability at 1 µM (H1048 cells): 94.9%
viability at 10 µM (H1048 cells): 24.1%
cytotoxicity at 1 µM (Molm-13 cells; [1]): 0%
viability at 1 µM (MDA-MB-231 cells): 108%
viability at 10 µM (MDA-MB-231 cells): 103%

Cc1ccc(CC(=O)Nc2scc3c2CN(C2CCC(=O)NC2=O)C3=O)cc1Cl (centres unmarked) [Compound 56, 2-(3-Chloro-4-methylphenyl)-N-(5-(2,6-dioxopiperidin-3-yl)-4-oxo-5,6-dihydro-4H-thieno[3,4-c]pyrrol-1-yl)acetamide]
inhibition at 1 µM (IL-1β): 55%
inhibition at 1 µM (IL-6): 12%
inhibition at 1 µM (TNF-α): 59%
viability at 1 µM (H1048 cells): 29.1%
viability at 10 µM (H1048 cells): 26.3%
cytotoxicity at 0.1 µM (Molm-13 cells; [1]): 10%
viability at 1 µM (MDA-MB-231 cells): 108%
viability at 10 µM (MDA-MB-231 cells): 101%

Cc1cnc(Nc2ccc(OCCCNC(=O)NCc3scc4c3CN(C3CCC(=O)NC3=O)C4=O)cc2)nc1Nc1cccc(S(=O)(=O)NC(C)(C)C)c1 (centres unmarked) [Compound 62, N-(tert-Butyl)-3-((2-((4-(3-(3-((5-(2,6-dioxopiperidin-3-yl)-4-oxo-5,6-dihydro-4H-thieno[3,4-c]pyrrol-1-yl)methyl)ureido)propoxy)phenyl)amino)-5-methylpyrimidin-4-yl)amino)benzenesulfonamide]
inhibition at 10 µM (IL-1β): 51%
inhibition at 10 µM (IL-6): 15%
inhibition at 10 µM (TNF-α): 63%
cytotoxicity at 1 µM (Molm-13 cells; [1]): 71%

Cc1sc2c(c1C)C(c1ccc(Cl)cc1)=N[C@@H](CC(=O)NCCCCNCC(=O)NCc1scc3c1CN([C@H]1CCCC(=O)NC1=O)C3=O)c1nnc(C)n1-2 [Compound 63, 2-((S)-4-(4-Chlorophenyl)-2,3,9-trimethyl-6H-thieno[3,2-f][1,2,4]triazolo[4,3-a][1,4]diazepin-6-yl)-N-(4-((2-(((5-((S)-2,7-dioxoazepan-3-yl)-4-oxo-5,6-dihydro-4H-thieno[3,4-c]pyrrol-1-yl)methyl)amino)-2-oxoethyl)amino)butyl)acetamide]
inhibition at 10 µM (IL-1β): 27%
inhibition at 10 µM (IL-6): 1%
inhibition at 10 µM (TNF-α): 34%

O=C1CCC(N2Cc3c(C4CCCC4)csc3C2=O)C(=O)N1 (centres unmarked) [Compound 64, 3-(3-Cyclopentyl-6-oxo-4H-thieno[2,3-c]pyrrol-5(6H)-yl)piperidine-2,6-dione]
inhibition at 10 µM (IL-1β): 22%
inhibition at 10 µM (IL-6): 8%
inhibition at 10 µM (TNF-α): 45%
cytotoxicity at 10 µM (Molm-13 cells; [1]): 13%

Nc1cccc2c1CN(C1CCC(=O)NC1=O)C2=O (centres unmarked) [lenalidomide, reference compound]
reduction of expression of IL-1-b (IL-1β; equimolar concentration (FIG. 5)): over 60%
reduction of IL-6 levels (IL-6; LPS-stimulated PBMCs (FIG. 6)): below 60%
reduction of expression of TNF-α (TNF-α; equimolar concentration (FIG. 7)): below 60%
